PubChem BioAssay (NCI)
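GI50 marks 50% less growth. The concentration for full growth arrest is given as TGI.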

Key:
Assay in all cases: NCI tumour cell line growth inhibition, 384-well format
NCI-H522 lung = tested on: NCI-H522 lung
MDA-MB-435 melanoma = tested on: MDA-MB-435 melanoma
RPMI-8226 leukemia = tested on: RPMI-8226 leukemia
SF-539 CNS = tested on: SF-539 CNS
NCI-H460 NSCLC = tested on: NCI-H460 NSCLC
NCI-H226 lung = tested on: NCI-H226 lung
K-562 leukemia = tested on: K-562 leukemia
DU-145 prostate = tested on: DU-145 prostate
HS 578T breast = tested on: HS 578T breast
PC-3 prostate = tested on: PC-3 prostate
MALME-3M melanoma = tested on: MALME-3M melanoma
COLO 205 colon = tested on: COLO 205 colon
LOX IMVI melanoma = tested on: LOX IMVI melanoma
OVCAR-8 ovarian = tested on: OVCAR-8 ovarian
T-47D breast = tested on: T-47D breast
SK-OV-3 ovarian = tested on: SK-OV-3 ovarian
SF-268 CNS = tested on: SF-268 CNS
SK-MEL-5 melanoma = tested on: SK-MEL-5 melanoma
NCI-H23 lung = tested on: NCI-H23 lung
BT-549 breast = tested on: BT-549 breast
SNB-75 CNS = tested on: SNB-75 CNS
UO-31 renal = tested on: UO-31 renal
ACHN renal = tested on: ACHN renal
SK-MEL-2 melanoma = tested on: SK-MEL-2 melanoma
NCI/ADR-RES ovarian = tested on: NCI/ADR-RES ovarian
MOLT-4 leukemia = tested on: MOLT-4 leukemia
SNB-19 CNS = tested on: SNB-19 CNS
SN12C renal = tested on: SN12C renal
SF-295 CNS = tested on: SF-295 CNS
SW-620 colon = tested on: SW-620 colon
UACC-62 melanoma = tested on: UACC-62 melanoma
CCRF-CEM leukemia = tested on: CCRF-CEM leukemia
IGROV1 ovarian = tested on: IGROV1 ovarian
TK-10 renal = tested on: TK-10 renal
UACC-257 melanoma = tested on: UACC-257 melanoma
U251 glioblastoma = tested on: U251 glioblastoma
HCT-15 colon = tested on: HCT-15 colon
HL-60(TB) leukemia = tested on: HL-60(TB) leukemia
HT29 colon = tested on: HT29 colon
RXF 393 renal = tested on: RXF 393 renal
SR leukemia = tested on: SR leukemia
M14 melanoma = tested on: M14 melanoma
HCC-2998 colon = tested on: HCC-2998 colon
A549 NSCLC = tested on: A549 NSCLC
EKVX NSCLC = tested on: EKVX NSCLC
A498 renal = tested on: A498 renal
HOP-62 NSCLC = tested on: HOP-62 NSCLC

Compound: C[C@H](NC(=O)c1c(C(F)F)nn(C)c1Oc1cccc(C(F)(F)F)c1)c1ccc(C(=O)O)cc1
- GI50 (NCI-H522 lung): > 100 µM
- TGI (NCI-H522 lung): > 100 µM
- GI50 (MDA-MB-435 melanoma): > 100 µM
- TGI (MDA-MB-435 melanoma): > 100 µM
- GI50 (RPMI-8226 leukemia): > 61.1 µM
- TGI (RPMI-8226 leukemia): > 100 µM
- GI50 (SF-539 CNS): > 100 µM
- TGI (SF-539 CNS): > 100 µM
- GI50 (NCI-H460 NSCLC): > 100 µM
- TGI (NCI-H460 NSCLC): > 100 µM
- GI50 (NCI-H226 lung): > 100 µM
- TGI (NCI-H226 lung): > 100 µM
- GI50 (K-562 leukemia): > 100 µM
- TGI (K-562 leukemia): > 100 µM
- GI50 (DU-145 prostate): > 100 µM
- TGI (DU-145 prostate): > 100 µM
- GI50 (HS 578T breast): > 100 µM
- TGI (HS 578T breast): > 100 µM
- GI50 (PC-3 prostate): > 100 µM
- TGI (PC-3 prostate): > 100 µM
- GI50 (MALME-3M melanoma): > 100 µM
- TGI (MALME-3M melanoma): > 100 µM
- GI50 (COLO 205 colon): > 100 µM
- TGI (COLO 205 colon): > 100 µM
- GI50 (LOX IMVI melanoma): > 100 µM
- TGI (LOX IMVI melanoma): > 100 µM
- GI50 (OVCAR-8 ovarian): > 100 µM
- TGI (OVCAR-8 ovarian): > 100 µM
- GI50 (T-47D breast): > 100 µM
- TGI (T-47D breast): > 100 µM
- GI50 (SK-OV-3 ovarian): > 100 µM
- TGI (SK-OV-3 ovarian): > 100 µM
- GI50 (SF-268 CNS): > 100 µM
- TGI (SF-268 CNS): > 100 µM
- GI50 (SK-MEL-5 melanoma): > 100 µM
- TGI (SK-MEL-5 melanoma): > 100 µM
- GI50 (NCI-H23 lung): > 100 µM
- TGI (NCI-H23 lung): > 100 µM
- GI50 (BT-549 breast): > 100 µM
- TGI (BT-549 breast): > 100 µM
- GI50 (SNB-75 CNS): > 100 µM
- TGI (SNB-75 CNS): > 100 µM
- GI50 (UO-31 renal): > 100 µM
- TGI (UO-31 renal): > 100 µM
- GI50 (ACHN renal): > 100 µM
- TGI (ACHN renal): > 100 µM
- GI50 (SK-MEL-2 melanoma): > 100 µM
- TGI (SK-MEL-2 melanoma): > 100 µM
- GI50 (NCI/ADR-RES ovarian): > 100 µM
- TGI (NCI/ADR-RES ovarian): > 100 µM
- GI50 (MOLT-4 leukemia): > 100 µM
- TGI (MOLT-4 leukemia): > 100 µM
- GI50 (SNB-19 CNS): > 100 µM
- TGI (SNB-19 CNS): > 100 µM
- GI50 (SN12C renal): > 100 µM
- TGI (SN12C renal): > 100 µM
- GI50 (SF-295 CNS): > 100 µM
- TGI (SF-295 CNS): > 100 µM
- GI50 (SW-620 colon): > 100 µM
- TGI (SW-620 colon): > 100 µM
- GI50 (UACC-62 melanoma): > 100 µM
- TGI (UACC-62 melanoma): > 100 µM
- GI50 (CCRF-CEM leukemia): > 100 µM
- TGI (CCRF-CEM leukemia): > 100 µM
- GI50 (IGROV1 ovarian): > 100 µM
- TGI (IGROV1 ovarian): > 100 µM
- GI50 (TK-10 renal): > 100 µM
- TGI (TK-10 renal): > 100 µM
- GI50 (UACC-257 melanoma): > 100 µM
- TGI (UACC-257 melanoma): > 100 µM
- GI50 (U251 glioblastoma): > 100 µM
- TGI (U251 glioblastoma): > 100 µM
- GI50 (HCT-15 colon): > 100 µM
- TGI (HCT-15 colon): > 100 µM
- GI50 (HL-60(TB) leukemia): > 100 µM
- TGI (HL-60(TB) leukemia): > 100 µM
- GI50 (HT29 colon): > 100 µM
- TGI (HT29 colon): > 100 µM
- GI50 (RXF 393 renal): > 100 µM
- TGI (RXF 393 renal): > 100 µM
- GI50 (SR leukemia): > 100 µM
- TGI (SR leukemia): > 100 µM
- GI50 (M14 melanoma): > 100 µM
- TGI (M14 melanoma): > 100 µM
- GI50 (HCC-2998 colon): > 100 µM
- TGI (HCC-2998 colon): > 100 µM
- GI50 (A549 NSCLC): > 100 µM
- TGI (A549 NSCLC): > 100 µM
- GI50 (EKVX NSCLC): > 100 µM
- TGI (EKVX NSCLC): > 100 µM
- GI50 (A498 renal): > 100 µM
- TGI (A498 renal): > 100 µM
- GI50 (HOP-62 NSCLC): > 100 µM
- TGI (HOP-62 NSCLC): > 100 µM
